In patent US7087642B2 (priority 1999, dated 2006):
Where two headings read alike, the source gives them in different places.

How the values were obtained:
human PBMC B cells = assay: cells; assay type: cell-based; conditions: read-out: B-cells (IC50)
human PBMC T cells = assay: cells; assay type: cell-based; conditions: read-out: T-cells (IC50)
IMPDH human type II = IMPDH human type II (Homo sapiens, UniProt P12268); assay: biochemical

Structure (SMILES) | IC50 (human PBMC B cells; Homo sapiens, 72 h) [nM] | IC50 (human PBMC T cells; Homo sapiens, 72 h) [nM] | Ki (IMPDH human type II; read-out: Ki) [nM] | IC50 (human PBMC B cells) [nM] | IC50 (human PBMC T cells) [nM] | Ki (IMPDH human type II) [nM]
CCN(CC)C[C@@H](OC(=O)NCc1cccc(NC(=O)Nc2ccc(-c3cnco3)c(OC)c2)c1)c1ccccc1 [Compound 67] | 100 to 1000 | 100 to 1000 | < 10 | – | – | –
CC[C@H](CCO)OC(=O)NCc1cccc(NC(=O)Nc2ccc(-c3cnco3)c(OC)c2)c1 [Compound 68] | – | – | < 10 | 100 to 1000 | 100 to 1000 | –
CC[C@@H](CCO)OC(=O)NCc1cccc(NC(=O)Nc2ccc(-c3cnco3)c(OC)c2)c1 [Compound 69] | – | – | < 10 | 100 to 1000 | 100 to 1000 | –
COc1cc(NC(=O)Nc2cccc(CNC(=O)OC3COCC3OCC(=O)OC(C)(C)C)c2)ccc1-c1cnco1 (stereo not drawn) [Compound 70] | – | – | < 10 | > 1000 | > 1000 | –
COc1cc(NC(=O)Nc2cccc(CNC(=O)OC3COCC3OCC(=O)O)c2)ccc1-c1cnco1 (stereo not drawn) [Compound 71] | > 1000 | > 1000 | < 10 | – | – | –
COc1cc(NC(=O)Nc2cccc(CNC(=O)OC3COCC3OCC(=O)OC(C)(C)C)c2)ccc1-c1cnco1 (stereo not drawn) [Compound 72] | – | – | < 10 | 100 to 1000 | 100 to 1000 | –
COc1cc(NC(=O)Nc2cccc(CNC(=O)OC3COCC3OCC(=O)O)c2)ccc1-c1cnco1 (stereo not drawn) [Compound 73] | – | – | < 10 | > 1000 | > 1000 | –
COc1cc(NC(=O)Nc2cccc(CNC(=O)Oc3cccc(/C=C/C(=O)OC(C)(C)C)c3)c2)ccc1-c1cnco1 [Compound 74] | > 1000 | > 1000 | – | – | – | < 10
COc1cc(NC(=O)Nc2cccc(CNC(=O)OC3COCC3OCC#N)c2)ccc1-c1cnco1 (stereo not drawn) [Compound 75] | 100 to 1000 | 100 to 1000 | < 10 | – | – | –
COc1cc(NC(=O)Nc2cccc(CNC(=O)OC3COCC3OCC#N)c2)ccc1-c1cnco1 (stereo not drawn) [Compound 76] | – | – | < 10 | < 100 | < 100 | –
COc1cc(NC(=O)Nc2cccc(CNC(=O)O[C@@H]3CCN(S(=O)(=O)N(C)C)C3)c2)ccc1-c1cnco1 [Compound 77] | 100 to 1000 | 100 to 1000 | < 10 | – | – | –
COc1cc(NC(=O)Nc2cccc(CNC(=O)O[C@@H]3C=C[C@H](OC(C)=O)C3)c2)ccc1-c1cnco1 [Compound 78] | 100 to 1000 | 100 to 1000 | < 10 | – | – | –
COc1cc(NC(=O)Nc2cccc(CNC(=O)OC(CC#N)C(F)(F)F)c2)ccc1-c1cnco1 (stereo not drawn) [Compound 79] | 100 to 1000 | 100 to 1000 | < 10 | – | – | –
CCN(CC)CC(CO)OC(=O)NCc1cccc(NC(=O)Nc2ccc(-c3cnco3)c(OC)c2)c1 (stereo not drawn) [Compound 80] | 100 to 1000 | 100 to 1000 | < 10 | – | – | –
CC[C@H](CC#N)OC(=O)NCc1cccc(NC(=O)Nc2ccc(-c3cnco3)c(OC)c2)c1 [Compound 81] | 100 to 1000 | 100 to 1000 | 10 to 50 | – | – | –
CC[C@@H](CC#N)OC(=O)NCc1cccc(NC(=O)Nc2ccc(-c3cnco3)c(OC)c2)c1 [Compound 82] | 100 to 1000 | 100 to 1000 | > 50 | – | – | –
CC[C@H](CCC#N)OC(=O)NCc1cccc(NC(=O)Nc2ccc(-c3cnco3)c(OC)c2)c1 [Compound 83] | 100 to 1000 | 100 to 1000 | 10 to 50 | – | – | –
CCC(CN1CC[S+]([O-])CC1)OC(=O)NCc1cccc(NC(=O)Nc2ccc(-c3cnco3)c(OC)c2)c1 (stereo not drawn) [Compound 84] | 100 to 1000 | 100 to 1000 | 10 to 50 | – | – | –
CCC(CN(CC)CC)OC(=O)NCc1cccc(NC(=O)Nc2ccc(-c3cnco3)c(OC)c2)c1 (stereo not drawn) [Compound 87] | < 100 | < 100 | < 10 | – | – | –
COc1cc(NC(=O)Nc2cccc(CNC(=O)O[C@@H](CO)CSC)c2)ccc1-c1cnco1 [Compound 88] | 100 to 1000 | 100 to 1000 | < 10 | – | – | –
COc1cc(NC(=O)Nc2cccc(CNC(=O)OC(CCC#N)C(F)(F)F)c2)ccc1-c1cnco1 (stereo not drawn) [Compound 90] | 100 to 1000 | 100 to 1000 | < 10 | – | – | –
CCC(C[N+]1([O-])CCS(=O)(=O)CC1)OC(=O)NCc1cccc(NC(=O)Nc2ccc(-c3cnco3)c(OC)c2)c1 (stereo not drawn) [Compound 91] | > 1000 | > 1000 | < 10 | – | – | –
CC[C@H](CCN(CC)CC)OC(=O)NCc1cccc(NC(=O)Nc2ccc(-c3cnco3)c(OC)c2)c1 [Compound 92] | 100 to 1000 | 100 to 1000 | < 10 | – | – | –
COc1cc(NC(=O)Nc2cccc(CNC(=O)OCCCOP(=O)(O)O)c2)ccc1-c1cnco1 [Compound 97] | < 100 | < 100 | 10 to 50 | – | – | –
COc1cc(NC(=O)Nc2cccc(CNC(=O)O[C@H](CN3CCCC3)c3ccccc3)c2)ccc1-c1cnco1 [Compound 98] | 100 to 1000 | 100 to 1000 | 10 to 50 | – | – | –
COc1cc(NC(=O)Nc2cccc(CNC(=O)O[C@H](CN3CCCCC3)c3ccccc3)c2)ccc1-c1cnco1 [Compound 99] | 100 to 1000 | 100 to 1000 | 10 to 50 | – | – | –

Structure (SMILES) | IC50 (human PBMC B cells; Homo sapiens, 72 h) [nM] | IC50 (human PBMC T cells; Homo sapiens, 72 h) [nM] | Ki (IMPDH human type II; read-out: Ki) [nM] | IC50 (human PBMC B cells) [nM] | IC50 (human PBMC T cells) [nM] | Ki (IMPDH human type II) [nM]
CCC(OC(=O)NCc1cccc(NC(=O)Nc2ccc(-c3cnco3)c(OC)c2)c1)C(C)(C)C#N (stereo not drawn) [Compound 100] | 100 to 1000 | 100 to 1000 | 10 to 50 | – | – | –
CC[C@@H](CCC#N)OC(=O)NCc1cccc(NC(=O)Nc2ccc(-c3cnco3)c(OC)c2)c1 [Compound 101] | < 100 | < 100 | < 10 | – | – | –
CC[C@@H](CCN(CC)CC)OC(=O)NCc1cccc(NC(=O)Nc2ccc(-c3cnco3)c(OC)c2)c1 [Compound 102] | 100 to 1000 | 100 to 1000 | < 10 | – | – | –
CCC(OC(=O)NCc1cccc(NC(=O)Nc2ccc(-c3cnco3)c(OC)c2)c1)C1(C#N)CC1 (stereo not drawn) [Compound 103] | < 100 | 100 to 1000 | > 50 | – | – | –
COc1cc(NC(=O)Nc2cccc(CNC(=O)OC(CC#N)C3CC3)c2)ccc1-c1cnco1 (stereo not drawn) [Compound 104] | < 100 | < 100 | 10 to 50 | – | – | –
CCCN(CCC(OC(=O)NCc1cccc(NC(=O)Nc2ccc(-c3cnco3)c(OC)c2)c1)c1ccccc1)C(C)C (stereo not drawn) [Compound 107] | 100 to 1000 | 100 to 1000 | > 50 | – | – | –
CCCN(C[C@@H](OC(=O)NCc1cccc(NC(=O)Nc2ccc(-c3cnco3)c(OC)c2)c1)c1ccccc1)C(C)C [Compound 108] | < 100 | 100 to 1000 | > 50 | – | – | –
COc1cc(NC(=O)Nc2cccc(CNC(=O)O[C@H](CN(CC(C)C)C(C)C)c3ccccc3)c2)ccc1-c1cnco1 [Compound 109] | 100 to 1000 | 100 to 1000 | > 50 | – | – | –
COc1cc(NC(=O)Nc2cccc(CNC(=O)O[C@H](CN(CC3CC3)C(C)C)c3ccccc3)c2)ccc1-c1cnco1 [Compound 110] | < 100 | 100 to 1000 | > 50 | – | – | –
CCCN(CC(C)C)CC(OC(=O)NCc1cccc(NC(=O)Nc2ccc(-c3cnco3)c(OC)c2)c1)c1ccccc1 (stereo not drawn) [Compound 112] | > 1000 | > 1000 | > 50 | – | – | –
CCCN(CCC)CC(OC(=O)NCc1cccc(NC(=O)Nc2ccc(-c3cnco3)c(OC)c2)c1)c1ccccc1 (stereo not drawn) [Compound 113] | > 1000 | > 1000 | > 50 | – | – | –
CCCN(CC1CC1)CC(OC(=O)NCc1cccc(NC(=O)Nc2ccc(-c3cnco3)c(OC)c2)c1)c1ccccc1 (stereo not drawn) [Compound 114] | > 1000 | > 1000 | > 50 | – | – | –
CCN(CC(C)C)CC(OC(=O)NCc1cccc(NC(=O)Nc2ccc(-c3cnco3)c(OC)c2)c1)c1ccccc1 (stereo not drawn) [Compound 115] | > 1000 | > 1000 | > 50 | – | – | –
COc1cc(NC(=O)Nc2cccc(CNC(=O)OC(CN(CC(C)C)CC(C)C)c3ccccc3)c2)ccc1-c1cnco1 (stereo not drawn) [Compound 116] | > 1000 | > 1000 | > 50 | – | – | –
COc1cc(NC(=O)Nc2cccc(CNC(=O)OC(CN(CC(C)C)CC3CC3)c3ccccc3)c2)ccc1-c1cnco1 (stereo not drawn) [Compound 117] | > 1000 | > 1000 | > 50 | – | – | –
CCCN(C)CCC(OC(=O)NCc1cccc(NC(=O)Nc2ccc(-c3cnco3)c(OC)c2)c1)c1ccccc1 (stereo not drawn) [Compound 118] | 100 to 1000 | 100 to 1000 | > 50 | – | – | –
CCCN(CC)CCC(OC(=O)NCc1cccc(NC(=O)Nc2ccc(-c3cnco3)c(OC)c2)c1)c1ccccc1 (stereo not drawn) [Compound 119] | 100 to 1000 | 100 to 1000 | > 50 | – | – | –
CCCN(CCC(OC(=O)NCc1cccc(NC(=O)Nc2ccc(-c3cnco3)c(OC)c2)c1)c1ccccc1)CC(C)C (stereo not drawn) [Compound 120] | > 1000 | > 1000 | > 50 | – | – | –
CCCN(CCC(OC(=O)NCc1cccc(NC(=O)Nc2ccc(-c3cnco3)c(OC)c2)c1)c1ccccc1)CC1CC1 (stereo not drawn) [Compound 122] | > 1000 | > 1000 | > 50 | – | – | –
CCCN(CCC)CCC(OC(=O)NCc1cccc(NC(=O)Nc2ccc(-c3cnco3)c(OC)c2)c1)c1ccccc1 (stereo not drawn) [Compound 123] | > 1000 | > 1000 | > 50 | – | – | –
CCN(CCC(OC(=O)NCc1cccc(NC(=O)Nc2ccc(-c3cnco3)c(OC)c2)c1)c1ccccc1)CC(C)C (stereo not drawn) [Compound 125] | 100 to 1000 | 100 to 1000 | > 50 | – | – | –
COc1cc(NC(=O)Nc2cccc(CNC(=O)OC(CCN(CC(C)C)CC(C)C)c3ccccc3)c2)ccc1-c1cnco1 (stereo not drawn) [Compound 126] | > 1000 | > 1000 | > 50 | – | – | –
COc1cc(NC(=O)Nc2cccc(CNC(=O)OC(CCN(CC(C)C)CC3CC3)c3ccccc3)c2)ccc1-c1cnco1 (stereo not drawn) [Compound 127] | > 1000 | > 1000 | > 50 | – | – | –
COc1cc(NC(=O)Nc2cccc(CNC(=O)OC(CCN(C)C(C)C)c3ccccc3)c2)ccc1-c1cnco1 (stereo not drawn) [Compound 128] | 100 to 1000 | 100 to 1000 | > 50 | – | – | –
CCN(CCC(OC(=O)NCc1cccc(NC(=O)Nc2ccc(-c3cnco3)c(OC)c2)c1)c1ccccc1)C(C)C (stereo not drawn) [Compound 129] | 100 to 1000 | 100 to 1000 | > 50 | – | – | –
